Key:
[1] = test system: Human neutrophils (polymorphonuclear leukocytes, PMN) on HUVEC monolayers; assay: Neutrophil (PMN) transendothelial migration across HUVEC monolayers with fMLP; type: cell-based; details: 10^-7 M fMLP, vs control with fMLP, FIGS. 10-11
Method: A further assay for evaluating modulating agent activity involves determining an effect of a candidate agent on neutrophil migration on endothelial cells. Within such assays, endothelial cells (e.g., HUVEC) may be harvested and cultured using standard techniques. Cells are grown to confluence on 8.0 μm pore cell culture inserts (Falcon, Franklin Lake, N.J.) essentially as described by Ohno et al., Inflammation 21(3):313-24, 1997. Radiolabeled human neutrophils (polymorphonuclear leukocytes, PMN) are added to the apical surface of HUVEC monolayers and allowed to migrate. Migration assays are generally performed in the presence of 10^−7 M N-formyl-methionyl-leucyl-phenylalanine (fMLP), a chemoattractant that causes the leukocytes to undergo diapedesis. PMN migration may be quantitated as follows: [formula]
Human umbilical vein endothelial cells (HUVEC) were harvested from umbilical cords by 0.2% collagenase treatment essentially as described by Yoshida et al., Am. […]
For neutrophil diapedesis experiments, HUVEC were grown to confluence on 8.0 μm pore cell culture inserts (Falcon, Franklin Lake, N.J.) essentially as described by Ohno et al., inflammation 21(3):313-24, 1997. […] The cells were then washed twice with cold phosphate-buffered saline (PBS), spun at 250 g for 8 minutes to remove unincorporated radioactivity and resuspended in PBS. […]
PMN migration was quantitated as follows: [formula]

HUVEC = assay: Immunofluorescence analysis of occludin in HUVEC; type: cell-based, human; details: 200 μg/mL peptide vs vehicle; FIG. 12B
Method: For immunofluorescence analysis of occludin, HUVEC grown on glass coverslips were treated with vehicle (FIG. 12A) or 200 μg/mL peptide 76 (FIG. 12B). Cells were fixed with methanol and acetone and stained for occludin (Kevil et al., Microcirculation 5:197-210, 1998). Immunofluorescent staining was performed with anti-occludin polyclonal antibody (Zymed, San Francisco, Calif. used at a concentration of 4 μg/ml) and Cy3-conjugated goat anti-rabbit secondary Ab (Jackson Labs, Westgrove, Pa., used at a 1:250 dilution), and analyzed by fluorescence microscope. […] The photographs shown are representative of at least 20 different fields observed in each experiment and of three independent experiments. Bar=25 μm.

Adult rats = assay: Miles assay for vascular permeability (Evans blue); type: in vivo; details: rat; for optical densities of dimethylformamide dye extracts from excised injection sites: 100 μg/ml peptide subdermal, OD at 620 nm, compared with PBS and the N-acetyl/C-amide peptides, FIG. 6, FIG. 8
Method: The ability of an agent to modulate cell adhesion may generally be evaluated in vivo by assessing the effect on vascular permeability utilizing the Miles assay (McClure et al., J. Pharmacological & Toxicological Methods 32:49-52, 1994). Briefly, a candidate modulating agent may be dissolved in phosphate buffered saline (PBS) at a concentration of 100 μg/ml. Adult rats may be given 100 μl subdermal injections of each peptide solution into their shaved backs, followed 15 minutes later by a single 250 μl injection of 1% Evans blue dissolved in PBS into their tail veins. The subdermal injection sites may be visually monitored for the appearance of blue dye. Once the dye appears (about 15 minutes after injection), each subdermal injection site may be excised, weighed, and placed in 1 ml dimethylformamide for 24 hours to extract the dye. The optical density of the dye extracts may then be determined at 620 nm. In general, the injection of 0.1 ml of modulating agent (at a concentration of 0.1 mg/ml) into the backs of rats causes an increase of dye accumulation at the injection sites of at least 50%, as compared to dye accumulation at sites into which PBS has been injected.
The ability of cyclic and linear peptides to increase vascular permeability was assessed utilizing the Miles assay (McClure et al., J. Pharmacological & Toxicological Meth. 32:49-521994). The peptides were dissolved in phosphate buffered saline (PBS) at a concentration of 100 μg/ml. Adult rats were given 100 μl subdermal injections of each peptide solution into their shaved backs, followed 15 minutes later by a single 250 μl injection of 1% Evans blue dissolved in PBS into their tail veins. The subdermal injection sites were visually monitored for the appearance of blue dye. Once the dye appeared (15 minutes after injection), each subdermal injection site was excised, weighed, and placed in 1 ml dimethylformamide for 24 hours to extract the dye. The optical density of the dye extracts was determined at 620 nm. […]

[2] = test system: Human aortic endothelial cells (HAEC); assay: Endothelial cell adhesion assay: occludin and VE-cadherin immunolocalization in HAEC monolayers; type: cell-based; details: 1 hour
From the text: The effect of a modulating agent on endothelial cell adhesion may generally be evaluated using immunolocalization techniques. Human aortic endothelial cells (HAEC) may be cultured on fibronectin-coated coverslips (fibronectin may be obtained from Sigma, St. Louis, Mo.) according to the procedures of Jaffe et al., J. Clin. Invest. 52:2745-2756, 1973. Briefly, human endothelial cells may be maintained in EGM (endothelial cell growth medium; Clonetics, San Diego, Calif.) and used for experiments at passage 4. Confluent cultures of HAEC may be exposed to either a candidate modulating agent (final concentration 100 μg/ml EGM), or EGM alone for 1 hour. The cells are then be fixed for 30 minutes at 4° C. in 95% ethanol, followed by fixation in acetone for 1 minute at 4° C. (Furuse et al., J. Cell Biol. 123:1777-1788, 1993). After fixation, the cells may be probed with either mouse anti-VE-cadherin antibodies (Hemeris, Sassenage, France; diluted 1:250 in 0.1% dried skim milk powder dissolved in PBS), or rabbit anti-occludin antibodies (Zymed, South San Francisco, Calif.; diluted 1:300 in 0.1% dried skim milk powder dissolved in PBS) for 1 hour at 37° C. The cells may then be washed with 0.1% dried skim milk powder dissolved in PBS (three washes, 5 minutes/wash), and probed with secondary antibodies (donkey anti-mouse Cy3, or donkey anti-rabbit Cy5 diluted 1:250 in 0.1% dried skim milk powder dissolved in PBS; Jackson Immunoresearch Laboratories Inc., Westgrove, Pa.) for 1 hour at 37° C. The cells may then be washed again with in 0.1% dried skim milk powder dissolved in PBS and mounted in a solution composed of 50% glycerol and 50% PBS to which phenylenediamine (Sigma, St. Louis, Mo.) has been added to a final concentration of 1 mg/ml. The sample may then be analyzed using a Bio-Rad MRC 1000 confocal microscope with Laser Sharp software version 2.1T (Bio-Rad, Hercules, Calif.). In general, 0.1 mg/ml of modulating agent results in the appearance of intercellular gaps within the monolayer cultures and a decrease of at least 50% in the surface expression of occludin and VE-cadherin, as compared to monolayer cultures that were not exposed to the modulating agent.
Human aortic endothelial cells (HAEC) were cultured on fibronectin (Sigma, St. Louis, Mo.) according to the procedures of Jaffe et al., J. Clin. Invest. 52:2745-2756, 1973. Cells were maintained in EGM (endothelial cell growth medium; Clonetics, San Diego, Calif.) and used for experiments at passage 4.
HAEC were cultured on fibronectin-coated coverslips. Confluent cultures of HAEC were exposed to linear peptides (final concentration 100 μg/ml EGM), or EGM alone for 1 hour. […] The samples were analyzed using a Bio-Rad MRC 1000 confocal microscope with Laser Sharp software version 2.1T (Bio-Rad, Hercules, Calif.). […]

[3] = test system: Madin Darby canine kidney (MDCK) cells; assay: Electrical resistance across MDCK cell monolayers; type: cell-based; details: 24 hours; for formation of tight junctions in epithelial cells: conclusion from MDCK electrical resistance, 0.5 mg/ml
Method: Yet another assay evaluates the effect of an occludin modulating agent on the electrical resistance across a monolayer of cells. For example, Madin Darby canine kidney (MDCK) cells can be exposed to the modulating agent dissolved in medium (e.g., at a final concentration of 0.5 mg/ml for a period of 24 hours). The effect on electrical resistance can be measured using standard techniques. This assay evaluates the effect of a modulating agent on tight junction formation in epithelial cells. In general, the presence of 500 μg/mL modulating agent should result in a statistically significant increase or decrease in electrical resistance after 24 hours.
Madin Darby canine kidney (MDCK) cells were plated in Millicells (Millipore, Bedford, Mass.), at a density of 300,000 cells per Millicell, and cultured in Dulbecco's Modified Eagle Medium (DMEM; Sigma, St. Louis, Mo.) containing 5% fetal calf serum (Sigma, St. Louis, Mo.). Monolayers were exposed to the modulating agent dissolved in medium at a final concentration of 0.5 mg/ml for a period of 24 hours. The electrical resistance was measured using the EVOM device (World Precision Instruments, Sarasota, Fla.). At the time of measurement, fresh medium, with or without the modulating agent, may be added to the Millicells.

[4] = 100 μg/ml peptide, compared to untreated cells

Substance: H-CLYHYC-OH (also: cyclic, kind not given here) [Peptide 5]
- fMLP-stimulated neutrophil transendothelial migration [1]: increase fMLP-stimulated transendothelial migration
- occludin staining and intercellular gaps in HUVEC (HUVEC): gaps between adjacent endothelial cells and the lack of junctional proteins at these gaps
- optical densities of dimethylformamide dye extracts from excised injection sites (Adult rats): more dye was extracted

Substance: H-QYLYHYCVVD-OH [Peptide 3]
- adhesion between endothelial cells (retraction of cells from one another) ([2]; 100 μg/ml peptide in EGM, vs untreated, FIG. 4B): adhesion is decreased
- formation of cobblestone-like monolayers ([2]; 100 μg/ml peptide): do not form cobblestone-like monolayers
- surface expression of VE-cadherin [2, 4]: greatly reduced
- surface expression of occludin [2, 4]: greatly reduced
- mean electrical resistance across MDCK cell monolayers ([3]; 0.5 mg/ml peptide, relative to the control (medium alone), FIG. 9): increased the electrical resistance
- formation of tight junctions in epithelial cells [3]: stimulate the formation of tight junctions in epithelial cells
- formation of tight junctions in epithelial cells ([3]; listed as H-QYLYHYCVVD-COOH): stimulating the formation of tight junctions in epithelial cells
- optical densities of dimethylformamide dye extracts from excised injection sites (Adult rats): more dye was extracted
- accumulation of Evans blue at the injection sites (visual) (Adult rats; 100 μl subdermal injection of 100 μg/ml peptide in PBS, Evans blue i.v. 15 min later, compared with PBS, acetyl-QYLYHYCVVD-NH2 and H-QYLYHYCVVD-NH2 sites, FIG. 5): more blue dye has accumulated

Source: patent US6797807B1, “Compounds and methods for cancer therapy” (Adherex Technologies, Inc., priority 1997, dated 2004)
